What was measured:
[1] = system: Bronchial carcinoma cells (SCLC); experiment: Anti-tumoral effect on a human parvocellular bronchial carcinoma in naked mice; assay type: in vivo, Nu/Nu mice, strain NMRI; settings: 10 mg/kg intravenously, SCLC tumors about 8 mm, FIG. 1
Experimental: a) Anti-Tumoral Effect on a Human Parvocellular Bronchial Carcinoma in Naked Mice
Bronchial carcinoma cells (SCLC) were implanted under the skin of six-week-old Nu/Nu mice, strain NMRI (5×10^6 cells in 0.1 ml common salt solution). The tumors had reached a size of about 8 mm after two weeks. Then, five animals each were treated intravenously with either 0.2 ml common salt solution/[…]/1% acetone (control group) or with 10 mg/kg compound according to Example 1 in common salt solution/1% BSA/1% acetone (treated group). The tumor growth was controlled daily. The values are shown in enclosed FIG. 1.

[2] = system: Colon carcinoma cells (SW707); experiment: Anti-tumoral effect on a human colon carcinoma in naked mice; assay type: in vivo, Nu/Nu mice, strain NMRI; settings: SW707 tumors about 10 mm, FIG. 2
From the text: b) Anti-Tumoral Effect of a Compound According to Example 1 on a Human Colon Carcinoma in Naked Mice Colon carcinoma cells (SW707) were implanted under the skin of 6-week-old Nu/Nu mice, strain NMRI (5×10^6 cells in common salt solution).

HeLa cells = experiment: pH dependence of the effectiveness of cytostatic agents (live cell count, trypan blue); assay type: cell-based, Human; settings: pH 7.4 vs pH 6.8, 24 hours, FIG. 3
Experimental: The number of live cells was determined after vital staining using trypan blue in Neubauer's counting chamber.

[3] = system: SW707 cells of a colorectal carcinoma; experiment: Antitumoral effect on human xenotransplants, SW707; assay type: in vivo, Nu/Nu-Swiss mice; settings: single i.p. injection 10 mg/kg, FIG. 4B
[4] = Body weight of the xenotransplant group suffering from parvocellular pulmonary carcinoma; assay type: in vivo, Nu/Nu-Swiss mice
Experimental: The tumor sizes were determined in two directions and the relative tumor growth was calculated.
(C): Average body weights of the group suffering from parvocellular pulmonary carcinoma. The standard deviations were less than 3%.

cell lines = experiment: Dependence of the cytotoxicity on the pH value, all cell lines of the table; assay type: cell-based; settings: pH 6.8 vs pH 7.4, cell lines of the table
Experimental: Cells were plated in Linbro dishes or plates and, after 4 hours, the cells were fed with a medium which included either 2.2 g/l (pH 7.4) or 0.85 g/l (pH 6.8) NaHCO3.

[5] = system: Human H10 cells of a parvocellular bronchial carcinoma; experiment: Antitumoral effect on human xenotransplants, H10; assay type: in vivo, Nu/Nu-Swiss mice; settings: single i.p. injection 10 mg/kg, FIG. 4A

Row | SMILES | tumor size [1] | tumor growth ([2]; 7.5 mg/kg intravenously (treated group I)) | pH dependence of effectiveness (HeLa cells) | effect on tumor growth [3] | weight loss ([4]; mouse, in vivo, ip, 10 mg/kg) | tumor growth ([2]; 10 mg/kg intravenously (treated group II)) | pH effect on IC50 (cell lines) | tumor size as compared to the control group [5] | weight loss ([4]; day 3 after the treatment, 10 mg/kg i.p., FIG. 4C) | weight loss ([4]; day 6 after the treatment, 10 mg/kg i.p., FIG. 4C)
1 | CCOC1=[S+][Pt-2]2([S]1)[S]C(OCC)=[S+]2 [Example 1, bis-[O-ethyldithiocarbanato]Platinum (II)] | decreased in size | tumor growth was slowed down | effective maximum in the slightly acidic range | tumor growth could be prevented | no weight loss |  |  |  |  | 
2 | N.N.[Cl][Pt][Cl] [cisplatin] |  |  | better effects in the alkaline range | no effect |  | constant tumor growth | poorer with pH 6.8 than with pH 7.4 or there was no detectable pH effect | 50% | 12% | 13%

Reference: patent US6881751B2, “Medicament containing platinum complex compounds and the use thereof” (Ruprecht Karls Universitat, priority 1998, dated 2005)
